In paper PMC9110316 (Computational and Structural Biotechnology Journal, 2022):
Like-named read-outs stand apart in the source and are kept apart here. Where a SMILES comes first, the peptide text is derived from it. [ ]: non-standard residue; d: D form. The star is where a group is joined. Nle = CCCC[CH](N)C(=O)O; Cbz = O=C(OCc1ccccc1)*

Assays:
[1] = MTT cell viability assay in Huh7 cells; type: cell-based; details: human
[2] = target: CTSL protein prepared from human liver tissue (Homo sapiens, UniProt P07711); experiment: biochemical; details: for inhibition at 100 µM: read-out: inhibition against CTSL (inhibition efficiency)
Sequence of CTSL protein prepared from human liver tissue (P07711 114-288 limits assumed): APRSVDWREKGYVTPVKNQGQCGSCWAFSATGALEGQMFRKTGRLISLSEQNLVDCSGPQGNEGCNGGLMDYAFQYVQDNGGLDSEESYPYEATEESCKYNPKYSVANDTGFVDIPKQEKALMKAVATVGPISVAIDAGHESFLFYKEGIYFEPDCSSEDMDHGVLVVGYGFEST
Sequence of CTSL protein prepared from human liver tissue (P07711 292-333 limits assumed): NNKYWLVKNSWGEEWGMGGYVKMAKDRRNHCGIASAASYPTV

SARS-CoV-2 pseudovirus [3] = experiment: microbe, parasite or virus in culture; details: Severe acute respiratory syndrome-related coronavirus, A549, read-out: EC50, inhibition of SARS-CoV-2 pseudovirus infection
[4] = MTT cell viability assay in A549 cells; type: cell-based; details: human
SARS-CoV-2 pseudovirus [5] = experiment: microbe, parasite or virus in culture; details: Severe acute respiratory syndrome-related coronavirus, Huh-7, read-out: EC50, inhibition of SARS-CoV-2 pseudovirus infection
SARS-CoV-2 pseudovirus [6] = system: SARS-CoV-2 pseudovirus

SMILES | CC50 at 24 h [1] | IC50 [2] | inhibition at 100 µM [2] | EC50 (SARS-CoV-2 pseudovirus [3]) | CC50 at 24 h [4] | EC50 (SARS-CoV-2 pseudovirus [5]) | SI (selectivity index, ratio of CC50 and EC50) (SARS-CoV-2 pseudovirus [6])
CCCCC(C=O)NC(=O)C(CC(C)C)NC(=O)C(CC(C)C)NC(C)=O (stereo not drawn) [Mg-101] (Ac-Leu-Leu-[Nle]-aldehyde; configuration not given here) | 64.3 µM | < 0.008 µM | > 90% | 1.15 µM | 355 µM | 3.12 µM | 
CC(C)C[C@@H](C=O)NC(=O)[C@H](CC(C)C)NC(=O)[C@H](CC(C)C)NC(=O)OCc1ccccc1 [Mg-132] (Cbz-Leu-Leu-Leu-aldehyde) | 100 µM |  | > 90% | 0.159 µM | > 200 µM | 0.212 µM | 
CC(NC(=O)C(Cc1ccccc1)NC(=O)OCc1ccccc1)C(=O)CF (centres unmarked) [Z-FA-FMK] | 328 µM | 0.0549 µM | > 90% | 1.13 µM | > 400 µM | 0.701 µM | 
CC1(C)CCC2=C(O1)c1ccccc1C(=O)C2=O [beta-lapachone] | 47.4 µM | > 100 µM |  |  |  | 5.09 µM | 9.31
CCCC[C@@H](C=O)NC(=O)[C@H](CC(C)C)NC(=O)OCc1ccccc1 [calpeptin] | 116 µM |  | > 90% | 34.8 µM | 595 µM | 29.8 µM | 
CCCCCCCCCC(=O)N[C@@H](Cc1c[nH]c2ccccc12)C(=O)N[C@H](CC(N)=O)C(=O)N[C@@H](CC(=O)O)C(=O)N[C@@H]1C(=O)NCC(=O)N[C@@H](CCCN)C(=O)N[C@@H](CC(=O)O)C(=O)N[C@H](C)C(=O)N[C@@H](CC(=O)O)C(=O)NCC(=O)N[C@H](CO)C(=O)N[C@@H]([C@H](C)CC(=O)O)C(=O)N[C@@H](CC(=O)c2ccccc2N)C(=O)O[C@@H]1C [daptomycin] | 3570 µM | 7.87 µM |  |  | > 5000 µM |  | 
CC(=O)N[C@@H](CC(C)C)C(=O)N[C@@H](CC(C)C)C(=O)N[C@H](C=O)CCCNC(=N)N [leupeptin hemisulfate] | > 5000 µM | < 0.008 µM | > 90% | 4.26 µM | > 5000 µM | 39.3 µM | 
